Laboratory results: patent publication US10583178B2, “Compositions comprising sulforaphane or a sulforaphane precursor and a mushroom extract or powder” (NUTRAMAX LABORATORIES, INC., priority 2012, dated 2020)

Key:
[1] = system: myrosinase; assay: Conversion of glucoraphanin to sulforaphane in Simulated Intestinal Fluid; format: biochemical, broccoli; details: 38° C., 0.25 to 1.00 mmol/Liter, especially at earlier stages
Protocol: Simulated Intestinal Fluid (SIF) powder, a commercially supplied concentrate closely approximating the human intestinal content in terms of composition, pH and ionic strength, was used. The experiment utilized a USP Dissolution Apparatus 2 (paddles), where into six dissolution vessels 500 mL of Simulated Intestinal Fluid was dispensed, along with 150 mg of freeze-dried broccoli sprout powder as a source of myrosinase. […] Aliquots were withdrawn every 15 minutes, and assayed for sulforaphane.

[2] = system: broccoli sprout-derived myrosinase; assay: Consumption of glucoraphanin by myrosinase as a function of ascorbic acid concentration; format: biochemical; details: 38° C.
Protocol: About 250 mg of broccoli seed extract containing about 12% (w/w) glucoraphanin were subjected to hydrolysis by a fixed concentration of broccoli sprout-derived myrosinase in the presence of variable concentration of ascorbic acid, ranging from 0 to 600 μmoles/Liter. The reaction mixtures were thermostated at 38° C.; aliquots were withdrawn every 15 minutes for 60 minutes, and concentration of glucoraphanin determined chromatographically. The rate of glucoraphanin consumption was interpreted as the rate its conversion to sulforaphane. Graphical representation of glucoraphanin content reduction as a function of increasing ascorbic acid concentration results in a series of linear plots; the slopes of the linear regression lines reflect the rate of glucoraphanin consumption, in moles/minute. It is apparent that in the presence of 600 μmoles/Liter concentration of ascorbic acid, the reaction rate increased 13-fold relative to that which proceeded in the absence of modulatory effects of ascorbic acid.

[3] = system: NAD(P)H:quinone oxidoreductase (NQO1); details: oral administration, mammary epithelium; cited from earlier work
[4] = system: Nad(P)H:quinone oxidoreductase 1 (NQO-1) gene expression; assay: NQO-1 gene expression by quantitative RT-PCR in macrophage cell line RAW 264.7; format: cell-based; details: 0.5 μM SFN, RAW 264.7, 24 hours
Protocol: The following study was conducted to determine the effect of the combination of sulforaphane and a maitake mushroom extract containing 20% β-glucans on gene expression of Nad(P)H:quinone oxidoreductase 1 (NQO-1). NQO-1 encodes a protein that is able to metabolize estrogen quinones, preventing them from forming DNA adducts that cause mutations and ultimately carcinogenesis. An increase in NQO-1 expression is favorable for breast, colon, liver, lung, skin and prostate health.
In the study, the macrophage cell line RAW 264.7 was treated with DMSO (vehicle control), sulforaphane (SFN), maitake mushroom extract having about 20% beta-glucan content (Maitake), or the combination of sulforaphane and maitake mushroom extract, for 24 hours. […] Gene expression of NQO-1 gene expression was analyzed via quantitative RT-PCR. The results, which are depicted in FIG. 5, show the following: […]
In the study, the macrophage cell line RAW 264.7 was treated with DMSO (vehicle control), sulforaphane (SFN), shiitake mushroom extract having at least 20% alpha-glucan content (Shiitake), or the combination of sulforaphane and shiitake mushroom extract, for 24 hours. […] Gene expression of NQO-1 gene expression was analyzed via quantitative RT-PCR. […]

[5] = system: heme oxygenase-1 (HO-1); details: oral administration, mammary epithelium; cited from earlier work

## O=C1O[C@H]([C@@H](O)CO)C(O)=C1O [Ascorbic Acid, ascorbic acid]
[1]
  relation of sulforaphane yield to ascorbic acid concentration: direct correlation
[2]; 50 μM ascorbic acid, 0 min
  glucoraphanin content: 93.36 µmol
[2]; 50 μM ascorbic acid, 15 min
  glucoraphanin content: 89.20 µmol
[2]; 50 μM ascorbic acid, 30 min
  glucoraphanin content: 84.24 µmol
[2]; 50 μM ascorbic acid, 45 min
  glucoraphanin content: 80.30 µmol
[2]; 50 μM ascorbic acid, 60 min
  glucoraphanin content: 76.36 µmol
[2]; 125 μM ascorbic acid, 0 min
  glucoraphanin content: 93.36 µmol
[2]; 125 μM ascorbic acid, 15 min
  glucoraphanin content: 84.52 µmol
[2]; 125 μM ascorbic acid, 30 min
  glucoraphanin content: 75.92 µmol
[2]; 125 μM ascorbic acid, 45 min
  glucoraphanin content: 68.09 µmol
[2]; 125 μM ascorbic acid, 60 min
  glucoraphanin content: 59.41 µmol
[2]; 250 μM Filtered ascorbic acid, 0 min
  glucoraphanin content: 93.36 µmol
[2]; 250 μM Filtered ascorbic acid, 15 min
  glucoraphanin content: 86.31 µmol
[2]; 250 μM Filtered ascorbic acid, 30 min
  glucoraphanin content: 79.44 µmol
[2]; 250 μM Filtered ascorbic acid, 45 min
  glucoraphanin content: 71.94 µmol
[2]; 250 μM Filtered ascorbic acid, 60 min
  glucoraphanin content: 65.18 µmol
[2]; 250 μM ascorbic acid, 0 min
  glucoraphanin content: 93.36 µmol
[2]; 250 μM ascorbic acid, 15 min
  glucoraphanin content: 80.95 µmol
[2]; 250 μM ascorbic acid, 30 min
  glucoraphanin content: 69.06 µmol
[2]; 250 μM ascorbic acid, 45 min
  glucoraphanin content: 57.63 µmol
[2]; 250 μM ascorbic acid, 60 min
  glucoraphanin content: 45.76 µmol
[2]; 400 μM ascorbic acid, 0 min
  glucoraphanin content: 93.36 µmol
[2]; 400 μM ascorbic acid, 15 min
  glucoraphanin content: 78.32 µmol
[2]; 400 μM ascorbic acid, 30 min
  glucoraphanin content: 62.78 µmol
[2]; 400 μM ascorbic acid, 45 min
  glucoraphanin content: 47.67 µmol
[2]; 400 μM ascorbic acid, 60 min
  glucoraphanin content: 33.15 µmol
[2]; 600 μM ascorbic acid, 0 min
  glucoraphanin content: 93.36 µmol
[2]; 600 μM ascorbic acid, 15 min
  glucoraphanin content: 75.02 µmol
[2]; 600 μM ascorbic acid, 30 min
  glucoraphanin content: 55.66 µmol
[2]; 600 μM ascorbic acid, 45 min
  glucoraphanin content: 37.50 µmol
[2]; 600 μM ascorbic acid, 60 min
  glucoraphanin content: 22.09 µmol

## C[S+]([O-])CCCCN=C=S (stereo not shown) [SFN, 1-isothiocyanato-4-methylsulfinylbutane]
[3]
  increase in NQO1 enzymatic activity: 3 fold
[4]
  Fold Increase in NQO-1 gene expression: 12.96 fold
[5]
  elevated immunostaining of HO-1: 4 fold
